Measurements reported in paper PMC12298629, “New Derivatives of Caracasine Acid with Anti-Leukemic Activity and Limited Effectiveness in Spheroid Cultures” (Pharmaceuticals, 2025).

Key:
BJ = test: Cytotoxic MTS assay, BJ fibroblasts; format: cell-based; details: human fibroblasts, 72 h, median of five assays
Source text: (§1) The cancer cell lines used in the cytotoxic assays were acquired from the American Tissue Culture Collection (ATCC) (Manassas, VA, USA) and maintained as described previously. The MRC-5 and BJ human fibroblasts were used as non-tumoral control cells. The (MRC-5 LD and BJ LD) are also human fibroblast cell lines resistant to doxorubicin. […] The Raji and Ramos cell lines correspond to B-cell leukemia. Other cells, such as U2OS, represent a child osteosarcoma, while HCT116 is a colorectal tumor cell line. (HCT116p53^−/−, Horizon Discovery Ltd., Cambridge, UK) is a similar cell line with its p53 gene knocked down, serving as a model of human cancer frequently associated with a poor prognosis. The cells were maintained in Nunc/corning 80 cm^2 plastic tissue culture flasks and cultured in a cell culture medium according to ATCC or Horizon recommendations (McCoy, DMEM/RPMI 1640 with 5 g/L glucose, 2 mM glutamine, 100 U/mL penicillin, […] streptomycin, 10% fetal calf serum, and NaHCO3). The compounds were freshly dissolved in DMSO. The final concentration of DMSO was 0.01% in the cell culture.
(§2) The in vitro cytotoxicity of compounds (1–7) was assessed using the standard 3-(4,5-dimethyl-thiazol-2yl)-5-(3-carboxymethoxyphenyl)-2-(sulfophenyl)-2H-tetrazolium (MTS). The assay was performed at the Institute of Molecular and Translational Medicine using a robotic platform (High-ResBiosolutions, Beverly, MA, USA). Cell suspensions were prepared and diluted according to the specific cell type and the expected target cell density (25,000–35,000 cells/mL, based on cell growth characteristics). An automatic pipettor (30 μL) was used to add cells into 384-well microtiter plates. All tested compounds were dissolved in 100% DMSO, and four-fold dilutions of the intended test concentrations were added in 0.15 μL aliquots at time zero to the microtiter plate wells by the echo acoustic non-contact liquid handler Echo550 (Labcyte, San Jose, CA, USA). The assays were accomplished in technical duplicates and at least three biological replicates. The cells were incubated with the tested compound for 72 h at 37 °C in a 5% CO2 atmosphere with 100% humidity. At the end of the incubation period, cells were assayed using the MTS test. Aliquots (5 μL) of the MTS stock solution were pipetted into each well and incubated for 1–4 h. After this incubation period, the optical density (OD) was measured at 490 nm using an Envision reader (PerkinElmer, Waltham, MA, USA). Tumor cell survival (TCS) was calculated using the following equation: TCS = (OD drug-exposed well/mean OD control wells) × 100%. The IC50 value, representing the concentration of the compound lethal to 50% of the tumor cells, was calculated from the corresponding dose-response curves using Dotmatics software (Updated version 2022, London, UK). After three days of incubation on the cancer cell lines and normal fibroblasts, the […] (IC50) were obtained. Five assays were performed for each cell line. The standard error of the assays was lower than 10%, as assessed by the triplicate assays.

BJ LD = test: Cytotoxic MTS assay, BJ LD fibroblasts (doxorubicin-resistant); format: cell-based; details: doxorubicin-resistant human fibroblasts, 72 h, median of five assays
Source text: as §1, §2

MRC-5 = test: Cytotoxic MTS assay, MRC-5 fibroblasts; format: cell-based; details: 72 h, median of five assays
Source text: as §1, §2

MRC-5 LD = test: Cytotoxic MTS assay, MRC-5 LD fibroblasts (doxorubicin-resistant); format: cell-based; details: 72 h, median of five assays
Source text: as §1, §2

CCRF-CEM = test: Cytotoxic MTS assay, CCRF-CEM; format: cell-based; details: human leukemia cell line, 72 h, median of five assays
Source text: as §1, §2

K562 = test: Cytotoxic MTS assay, K562; format: cell-based; details: 72 h, median of five assays
Source text: as §1, §2

RAJI = test: Cytotoxic MTS assay, Raji; format: cell-based; details: human leukemia cell line, 72 h, median of five assays
Source text: as §1, §2

RAMOS = test: Cytotoxic MTS assay, Ramos; format: cell-based; details: human leukemia cell line, 72 h, median of five assays
Source text: as §1, §2

HCT116 par = test: Cytotoxic MTS assay, HCT116 parental 2D; format: cell-based; details: 72 h, median of five assays
Source text: as §1, §2

HCT116KO53 = test: Cytotoxic MTS assay, HCT116 p53 knockout 2D; format: cell-based; details: 72 h, median of five assays
Source text: as §1, §2

A549 = test: Cytotoxic MTS assay, A549 2D; format: cell-based; details: 72 h, median of five assays
Source text: as §1, §2

U2OS = test: Cytotoxic MTS assay, U2OS 2D; format: cell-based; details: human tumors 2D, 72 h, median of five assays
Source text: as §1, §2

HCT116 par spheroids = test: Spheroid viability assay (CellTiter-Glo 3D), HCT116 parental spheroids; format: cell-based; details: 72 h, 100 pM to 50 μM
Protocol: (§3) Spheroid culture aims to analyze the drug’s effect on complex structures resembling solid tumors. The spheroids were prepared using the specific nonadherent plates for spheroid formation (Nunc Sphera, Thermo Fisher, Waltham, MA, USA) according to the simple protocol outlined by the manufacturer. The cell lines HCT116 parental, HCT116KOTp53, A549, and U2OS were cultured at a density of 2500 cells per well using medium containing 10% fetal calf serum and antibiotics: McCoy’s 5A medium for HCT116, F-12K (Kaighn’s Modified) for A549, and Dulbecco’s Modified Eagle Medium (DMEM). The cells were grown in culture for 48 h as recommended by the manufacturer and as described by Das et al. and Muñoz-Garcia et al..
(§4) The cell viability of the treated spheroids was assessed using the kit CellTiter-Glo 3D (Promega Corporation, Madison, WI, USA). The kit is designed to measure ATP as an indicator of viability, generating a luminescent readout that is more sensitive than colorimetric or fluorescence-based methods. The spheroids were cultivated with compounds at concentrations ranging from 100 pM to 50 μM in triplicate for 72 h, and the luminescence was measured using the Enspire apparatus (PerkinElmer). A standard curve was performed for each analysis as recommended by the manufacturer.

HCT116KO53 spheroids = test: Spheroid viability assay (CellTiter-Glo 3D), HCT116 p53 KO spheroids; format: cell-based; details: 72 h, 100 pM to 50 μM
Protocol: as §3, §4

A549 spheroids = test: Spheroid viability assay (CellTiter-Glo 3D), A549 spheroids; format: cell-based; details: 72 h, 100 pM to 50 μM
Protocol: as §3, §4

U2OS spheroids = test: Spheroid viability assay (CellTiter-Glo 3D), U2OS spheroids; format: cell-based; details: human tumors spheroids, 72 h, 100 pM to 50 μM
Protocol: as §3, §4

[1] = tested on: mixed spheroids of MRC-5 fibroblasts with HCT116 or HCT116 p53 KO cells; test: Mixed spheroid viability assay; format: cell-based, human; details: mixed spheroids of fibroblasts and tumor cells
Protocol: as §4, with “Mixed spheroids were made by mixing MRC-5 fibroblasts with HCT116 or HCT116 p53 KO cells at a ratio of 1:1 (1000 cells/well); the cells were added immediately one after the other, and the formation of spheroids was monitored for 48 hrs. The mixed spheroids of both cell types had similar morphological features. The cell” for “The cell”

caspase 8 = test: Caspase 8 activity in lysed HCT116 cells from 2D and spheroids; format: cell-based, human; details: HCT116 parental spheroids, 25 µM (cisplatin 15 μM), 12 h
Protocol: (§5) The assay was designed to evaluate the impact of various compounds on caspase activity using a standardized quantity of cell protein lysates after 12 h of incubation. The parental line HCT116 served as the basis for these experiments. Three distinct caspases were examined employing the fluorescence assay kits from Calbiochem (San Diego, CA, USA), specifically a fluorometric caspase-8 assay kit and a fluorimetric caspase-3 assay kit. Additionally, the fluorometric kit from Abcam was utilized to assess caspase-9 activity. Due to the variations in protocols for each caspase, separate plates were prepared for each assay, encompassing both two-dimensional (2D) cell cultures and spheroids. The compound concentrations were established at 25 µM, and assays were conducted in quintuplicate following a 12-h incubation period. The cells were harvested from the plates using the standard trypsin-EDTA solution (Merck Sigma Aldrich, Saint Louis, MO, USA), washed, and counted before lysis, as described in each kit. Cell processing adhered to the guidelines provided by the respective companies, and protein concentration was calculated and standardized using the standard BCA assay. Fluorescent readings were captured using the Enspire apparatus (Perkin-Elmer, MA, USA). Positive controls utilized included staurosporine at a concentration of 5 μM and cisplatin at 15 μM. The kits provided their own standards; however, to normalize all the readings between cultures, types, and treatments, the results were expressed as a percentage relative to the positive control, staurosporine, in 2D culture. […] A total of three separate assays were conducted for each caspase.

caspase 9 = test: Caspase 9 activity in lysed HCT116 cells from 2D and spheroids; format: cell-based, human; details: HCT116 parental spheroids, 25 µM (cisplatin 15 μM), 12 h
Protocol: as §5

caspase 3 = test: Caspase 3 activity in lysed HCT116 cells from 2D and spheroids; format: cell-based, human; details: 12 h; for Caspase 3 activity, spheroid culture: HCT116 parental spheroids, 25 µM (cisplatin 15 μM); for Caspase 3 activity, 2D culture: HCT116 parental, 25 µM
Protocol: as §5

normal human leukocytes = tested on: normal human leukocytes; design: method as in PMID 31449809, PMID 35430982; details: 0.1 nM to 50 μM in 0.01% DMSO; cited from earlier work
[2] = MRC5, doxorubicin-resistant human fibroblasts
[3] = HCT-116, human tumors spheroids

SMILES	Caspase 8 activity, spheroid culture (caspase 8)	Caspase 9 activity, spheroid culture (caspase 9)	Caspase 3 activity, spheroid culture (caspase 3)	IC50 (BJ; BJ)	IC50 (BJ LD; Fibroblast)	IC50 (MRC-5; MRC5, human fibroblasts)	IC50 (MRC-5 LD; [2])	IC50 (CCRF-CEM; CCRF-CEM)	IC50 (K562; K562, human leukemia cell line)	IC50 (RAJI; Raji)	IC50 (RAMOS; Ramos)	IC50 (HCT116 par; HCT-116, human tumors 2D)	IC50 (HCT116KO53; HCT-116, human tumors 2D)	IC50 (A549; A549, human tumors 2D)	IC50 (U2OS; U2OS)	IC50 (HCT116 par spheroids; [3])	IC50 (HCT116KO53 spheroids; [3])	IC50 (A549 spheroids; A549, human tumors spheroids)	IC50 (U2OS spheroids; U2OS)	Caspase 3 activity, 2D culture (caspase 3)	other results
N.N.[Cl][Pt][Cl] [Cisplatin, reference compound]	caspase activation was observed	caspase activation was observed	caspase activation was observed																		IC50 (BJ): 9.5 µM; IC50 (BJ LD): 17.8 µM; IC50 (MRC-5; human fibroblasts): 3.98 µM; IC50 (MRC-5 LD; doxorubicin-resistant human fibroblasts): 23.5 µM; IC50 (CCRF-CEM): 4.62 µM; IC50 (K562; human leukemia cell line): 6.98 µM; IC50 (RAJI): 0.68 µM; IC50 (RAMOS): 0.56 µM; IC50 (HCT116 par; human tumors 2D): 12.5 µM; IC50 (HCT116KO53; human tumors 2D): 8.34 µM; IC50 (A549; human tumors 2D): 9.51 µM; IC50 (U2OS): 9.56 µM; IC50 (HCT116 par spheroids; human tumors spheroids): 15.9 µM; IC50 (HCT116KO53 spheroids; human tumors spheroids): 45.7 µM; IC50 (A549 spheroids; human tumors spheroids): 49.8 µM; IC50 (U2OS spheroids): 21.8 µM; IC50 [1]: 26.8 µM
C=C1C(=O)C23CCC(C(=C)C)C(C)(CCC(=O)O)C2CCC1C3 (stereo not shown) [Compound 1, Caracasine Acid]	absence of caspase activity	absence of caspase activity	absence of caspase activity	6.88 µM	7.04 µM	6.48 µM	6.69 µM	0.38 µM	4.77 µM	0.85 µM	0.62 µM	1.73 µM	1.52 µM	5.98 µM	1.79 µM	> 50 µM	> 50 µM	> 50 µM	> 50 µM	significant changes	Effect on primary leukocytes (normal human leukocytes): no significant effect
C=C1C(=O)C23CCC(C(=C)C)C(C)(CCC(=O)OC4CCCCC4)C2CCC1C3 (stereo not shown) [Compound 3, Caracasine Acid Cyclohexyl Ester]	absence of caspase activity	absence of caspase activity	absence of caspase activity	7.38 µM	6.5 µM	5.45 µM	2.69 µM	0.38 µM	2.21 µM	1.86 µM	0.78 µM	1.59 µM	1.63 µM	2.69 µM	1.66 µM	> 50 µM	> 50 µM	> 50 µM	> 50 µM	significant changes	
